Results reported in PMC12005801, “Non‐Membrane Active Peptide Resensitizes MRSA to β‐Lactam Antibiotics and Inhibits S. aureus Virulence” (Advanced Science, 2025).
Read-outs that look alike come from different tables or passages of the source.

Columns and labels:
MRSA T144 [1] = assay: MIC assay of β-lactams in the presence of AMPs (potentiation); assay type: cell-based, Staphylococcus aureus; details: for Potentiation (fold)^c, MIC^a / MIC^b: antibiotic with 1/4 MIC GN1
Procedure: A) Potentiation of different AMPs to piperacillin (PIP) against MRSA T144. 1/4 MIC AMPs were mixed with bacteria (10^6 CFU mL^−1) in MH medium and cultured with diluted PIP in 96‐well plates overnight. […] All experiments were conducted with three biological replicates and data were presented as mean ± SD.

MRSA T144 [2] = assay: MIC assay, agent alone; assay type: cell-based, Staphylococcus aureus; parameters: MIC^a, MIC in the presence of AMPs only: unit not given beside the values; details: for MIC: Staphylococcus aureus
S. aureus 29213 = assay: MIC of β-lactams with/without GN1; assay type: cell-based, Staphylococcus aureus; details: for MIC: Staphylococcus aureus, antibiotic alone; for MIC (+1/2 MIC GN1): antibiotic + 1/2 MIC GN1
Procedure: MICs determination of drugs was based on the standard microdilution method as described previously.^[ [46] ^] Briefly, compounds were twofold serial dilution with MHB. Next, AMPs were added to the log‐phase bacteria suspensions (1 × 10^6 CFUs mL^−1) and then mixed with compounds in a 96‐well microliter plate (Corning, NY, USA).

MRSA T144 [3] = assay: Time-killing assay; assay type: cell-based, Staphylococcus aureus; details: identical concentrations alone: GN1 8 µg mL^−1, PIP 16 µg mL^−1, 12 h
Procedure: Briefly, overnight bacteria culture was diluted 1:1000 into LB and incubated for 4 h at 37 °C with 200 rpm. […] At the time points 0, 2, 4, 6, 8, 10, and 12 h, 100 µL bacteria culture was removed and resuspended in PBS and the serial dilutions were spotted on LB agar. After incubation overnight at 37 °C, the colony counts were calculated.

MRSA T144 [4] = details: addition of glutamate
Procedure: G) Fold changes in MIC values of various β‐lactams in the presence of glutamate against MRSA T144. […] All experiments were conducted with three biological replicates and data were presented as mean ± SD. Statistical significance was analyzed by ordinary one‐way or two‐way ANOVA (*P < 0.05, **P < 0.01, ***P < 0.001, ****P < 0.0001). ns, not significant.

[5] = MRSA T144, read-out: MIC^a, MIC in the presence of antibiotics only
[6] = MRSA, read-out: MIC^a, MIC in the presence of antibiotics only

Compound	MIC^b, MIC in combination of antibiotics and 1/4 MIC GN1 (MRSA T144 [1]) [µg/mL]	Potentiation (fold)^c, MIC^a / MIC^b (MRSA T144 [1]) [fold]	MIC (MRSA T144 [2]; [5]) [µg/mL]	MIC (S. aureus 29213) [µg/mL]	MIC (+1/2 MIC GN1) (S. aureus 29213) [µg/mL]	MIC (MRSA T144 [2]; [6]) [µg/mL]	further results
CC1(C)S[C@@H]2[C@H](NC(=O)[C@H](N)c3ccccc3)C(=O)N2[C@H]1C(=O)O [Ampicillin]	8	64	512	16	8	–	–
CC1(C)S[C@@H]2[C@H](NC(=O)C(C(=O)O)c3ccccc3)C(=O)N2[C@H]1C(=O)O (stereo partly drawn) [Carbenicillin]	1	32	–	–	–	32	–
CO/N=C(\C(=O)N[C@@H]1C(=O)N2C(C(=O)[O-])=C(C[N+]3(C)CCCC3)CS[C@H]12)c1csc(N)n1 [Cefepime]	2	4	–	4	2	8	–
CO/N=C(\C(=O)N[C@@H]1C(=O)N2C(C(=O)O)=C(CSc3nc(=O)c(=O)[nH]n3C)CS[C@H]12)c1csc(N)n1 [Ceftriaxone]	4	8	–	–	–	32	–
CO/N=C(\C(=O)N[C@@H]1C(=O)N2C(C(=O)O)=C(COC(N)=O)CS[C@H]12)c1ccco1 [Cefuroxime]	1	8	–	–	–	8	–
C[C@@H](O)[C@H]1C(=O)N2C(C(=O)O)=C(S[C@@H]3CN[C@H](C(=O)N(C)C)C3)[C@H](C)[C@H]12 [Meropenem]	0.0625	16	–	0.0625	0.03125	1	–
Cc1onc(-c2ccccc2)c1C(=O)N[C@@H]1C(=O)N2[C@@H]1SC(C)(C)[C@@H]2C(=O)O [Oxacillin]	0.03125	32	1	–	–	–	–
CCN1CCN(C(=O)N[C@@H](C(=O)N[C@@H]2C(=O)N3[C@@H]2SC(C)(C)[C@@H]3C(=O)O)c2ccccc2)C(=O)C1=O [Piperacillin]	8	–	> 512	2	0.5	–	Time-kill kinetics, single agent (MRSA T144 [3]): failed to prevent bacterial proliferation; MIC (MRSA T144 [2]; MRSA T144, read-out: MIC of PIP alone): 512 µg/mL
CC1(C)S[C@@H]2[C@H](NC(=O)[C@H](C(=O)O)c3ccsc3)C(=O)N2[C@H]1C(=O)O [Ticarcillin]	1	16	16	2	2	–	–
N[C@@H](CCC(=O)O)C(=O)O [glutamate]	–	–	–	–	–	–	Reduction of MIC values of three β‐lactam antibiotics (MRSA T144 [4]): 2-16 fold
Ac-WKVKWKVKWKVK-NH2 [WK-12]	–	–	–	–	–	–	Potentiation (fold)^c, MIC^c / MIC^b (MRSA T144 [1]; MIC of piperacillin only / MIC of piperacillin with 1/4 MIC AMP): 4 fold; MIC^b, MIC of piperacillin in the presence of 1/4 MIC AMPs (MRSA T144 [1]; label = the AMP added at 1/4 MIC, no unit in table (text gives µg mL^−1)): 128; MIC^a, MIC in the presence of AMPs only (MRSA T144 [2]; MRSA T144, microdilution in MHB, 1 × 10^6 CFUs mL^−1, 37 °C, 16–18 h, no unit in table (text gives µg mL^−1)): 32
